For two molecules, Ki results are on record in BindingDB's records for PubMed 1362243 (National Institute of Mental Health, 1992).

Molecules are shown by their SMILES. Positions of bridges follow the written chain, without caps; N, C: chain ends. Non-standard residues stand in square brackets, D forms with d. Residues, ends and D or L forms follow the SMILES beside them. *: point of attachment. X1 = CC(O)[C@H](CO)N*

For orientation: Ki means the equilibrium dissociation constant of an inhibitor or competing ligand from its target. Low readings indicate a stronger hold on the target, high ones a looser hold on the target.

For this test, the target named is Somatostatin receptor type 4 (Rattus norvegicus, UniProt P30937).
Sequence of Somatostatin receptor type 4 (P30937 whole entry): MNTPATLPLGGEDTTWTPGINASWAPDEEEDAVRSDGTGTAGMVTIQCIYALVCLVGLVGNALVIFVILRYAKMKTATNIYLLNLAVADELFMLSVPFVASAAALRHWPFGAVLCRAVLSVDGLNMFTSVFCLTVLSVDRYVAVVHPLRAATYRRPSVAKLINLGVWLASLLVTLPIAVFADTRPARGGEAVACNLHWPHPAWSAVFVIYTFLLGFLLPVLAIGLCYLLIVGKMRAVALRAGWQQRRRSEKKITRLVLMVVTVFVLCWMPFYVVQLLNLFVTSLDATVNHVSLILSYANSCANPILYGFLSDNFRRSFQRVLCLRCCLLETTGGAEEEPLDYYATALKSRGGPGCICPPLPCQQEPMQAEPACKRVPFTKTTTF

`CC(O)[C@H](CO)NC(=O)[C@@H]1CSSC[C@H](NC(=O)[C@H](N)Cc2ccccc2)C(=O)N[C@@H](Cc2ccccc2)C(=O)N[C@H](Cc2c[nH]c3ccccc23)C(=O)N[C@@H](CCCCN)C(=O)N[C@@H]([C@@H](C)O)C(=O)N1` (some centres not stated) (H-[dF]CF[dW]KTC-X1; disulfide 2-7): affinity was put at a Ki of 0.18 nM.

In the case of `CSCC[C@H](NC(=O)[C@H](C)NC(=O)[C@@H]1CCCN1C(=O)[C@H](CC(N)=O)NC(=O)[C@H](CO)NC(=O)[C@H](CC(N)=O)NC(=O)[C@H](C)NC(=O)[C@@H](N)CO)C(=O)N[C@@H](C)C(=O)N1CCC[C@H]1C(=O)N[C@@H](CCCNC(=N)N)C(=O)N[C@@H](CCC(=O)O)C(=O)N[C@@H](CCCNC(=N)N)C(=O)N[C@@H](CCCCN)C(=O)N[C@@H](C)C(=O)NCC(=O)N[C@H]1CSSC[C@@H](C(=O)O)NC(=O)[C@H](CO)NC(=O)[C@H]([C@@H](C)O)NC(=O)[C@H](Cc2ccccc2)NC(=O)[C@H]([C@@H](C)O)NC(=O)[C@H](CCCCN)NC(=O)[C@H](Cc2c[nH]c3ccccc23)NC(=O)[C@H](Cc2ccccc2)NC(=O)[C@H](Cc2ccccc2)NC(=O)[C@H](CC(N)=O)NC(=O)[C@H](CCCCN)NC1=O` [somatostatin-28], the inhibitory constant (Ki) is 0.08 nM.
